# Measurements from ChEMBL document CHEMBL3507680, “University of Dundee, Gates Library screen for HepG2 cell viability”.
# Assay: Human HepG2 cell viability assay in 384 well format
# Assay type: toxicity, cell-based
# Parameters: dose 125 nL, time 70.5 hour; cytotoxicity at 70.5 h: concentration not given beside the values
# Conditions: HepG2 cells, read-out: Inhibition
row,Structure (SMILES),cytotoxicity at 70.5 h
1,Cc1noc([C@]23COC[C@H]2CN(C(=O)C2CCOCC2)C3)n1,-4.92%
2,Cc1noc([C@@]23CCO[C@@H]2CCN(C(=O)c2cc(C)[nH]c2C)C3)n1,-2.6%
3,CCC1=N[C@@]2(CC[C@@H]3CN(C(=O)NCC(C)C)C[C@@H]32)C(=O)N1CCOC,-2.9%
4,O=C1NC(c2ccccc2)=N[C@@]12CC[C@@H]1CN(Cc3nccs3)C[C@@H]12,-4.6%
5,O=C1NC(c2ccccc2)=N[C@@]12CC[C@@H]1CN(Cc3cccnc3)C[C@@H]12,-0.723%
6,Cc1noc([C@@]23CCO[C@@H]2CCN(C(=O)C2CCOCC2)C3)n1,4.56%
7,CC(=O)N1CC[C@H]2OCC[C@@]2(C(=O)NCc2ccco2)C1,1.98%
8,CS(=O)(=O)NC[C@@H]1OC[C@H]2CN(C(=O)c3ccc[nH]3)CC[C@H]21,3.6%
9,Cn1cc(N2CCC3(CCN(S(=O)(=O)C4CC4)C3)C2=O)cn1 (stereo not given),4.38%
10,O=C1CC2(CCN(S(=O)(=O)C3CC3)C2)CN1c1cncnc1 (stereo not given),4.54%
11,CN1CCN(C(=O)[C@@H]2CCO[C@@H]3CCN(c4ncccn4)C[C@@H]32)CC1,-3.98%
12,Cc1noc([C@@]23CCO[C@@H]2CCN(C(=O)c2sccc2C)C3)n1,-1.6%
13,Cc1cccc(CN2C[C@@H]3CCCO[C@@H]3[C@H](NS(C)(=O)=O)C2)n1,-3.48%
14,Cn1cc(N2CC3(CCN(S(=O)(=O)C4CC4)C3)CC2=O)cn1 (stereo not given),-1.83%
15,Cc1cccc(CN2C[C@@H]3CN(C(=O)c4ccsc4)C[C@@H]3C2=O)c1,-5.57%
16,CO[C@H]1CCN(c2ncccn2)[C@H]1Cc1ccccc1,-6.47%
17,COCCC(=O)N1CCN(C)c2ncccc2C1,-6.73%
18,Cc1nc(N2CCOCC2)nc2c1CN(C(=O)Cc1ccccn1)CC2,-8.21%
19,Cc1cc(C(=O)NCC2COCc3c(C)nnn3C2)no1 (stereo not given),-6.83%
20,Cc1nnn2c1COCC(CNC(=O)c1ccc3[nH]ccc3c1)C2 (stereo not given),-9.06%
21,CNC(=O)[C@H]1C[C@@H]2CN(S(=O)(=O)c3ccccc3)C[C@@H]2N1C(C)=O,-3.07%
22,CNC(=O)N1C[C@H]2CC[C@@]3(N=C(c4ccccc4)NC3=O)[C@H]2C1,-6.95%
23,NCC1Cn2nnc(-c3cccc(F)c3)c2CO1 (stereo not given),-4.77%
24,CN(C)C(=O)NC[C@H]1OC[C@@H]2CCN(Cc3ccoc3)C[C@@H]21,52.3%
25,CC(C)NC(=O)N1CC[C@@H]2CN(Cc3cccc(Cl)c3)S(=O)(=O)[C@@H]2CC1,27%

row,Structure (SMILES),cytotoxicity at 70.5 h
1,Cc1ccc(CN2CCC3(CC(C(=O)NCC4CC4)=NO3)C2)cc1C (stereo not given),27.5%
2,O=C(N[C@@H]1CN(Cc2cccs2)[C@@H]2CCCO[C@@H]21)C1CC1,-10.5%
3,O=C1CO[C@@H]2CN(S(=O)(=O)c3ccccc3)C[C@H]2N1CC1CC1,-13.1%
4,O=C(NCc1cccs1)C1CN(C(=O)c2cccs2)CC12CCOCC2 (stereo not given),-8.67%
5,COc1cccc(S(=O)(=O)N2CCn3cnc(COCC4CC4)c3C2)c1,-10%
6,CS(=O)(=O)CC(=O)N1C[C@@H]2COC[C@]2(c2nnc(C3CC3)o2)C1,4.38%
7,O=C(NCc1cccnc1)C1=NOC2(CCN(S(=O)(=O)C3CC3)C2)C1 (stereo not given),-10.8%
8,CC(C)N(C)C(=O)C1=NOC2(CCN(C(=O)c3ccc(Cl)cc3)C2)C1 (stereo not given),-0.00349%
9,O=C1NC2(CCN(CC(=O)N3CCOCC3)CC2)Nc2ccc(Br)cc21,-2.15%
10,Cc1nn(C)cc1CN1CCCC(n2c(=O)oc3ccccc32)C1 (stereo not given),0.702%
11,CSc1ncc(C(=O)NCCn2nccc2C)cn1,-2.28%
12,CC(C)c1ncc(CN2CCC(O)(c3ccccc3F)CC2)cn1,2.86%
13,COCCC(=O)N1CCC2(CC1)CN(S(C)(=O)=O)Cc1ccccc1O2,-2.27%
14,CCc1ncc(CN2CCC(O)(c3ccccc3F)CC2)cn1,-4.61%
15,Cc1ncc(CN2CCC(O)(c3ccccc3F)CC2)cn1,-0.616%
16,Cn1ncc(Cl)c1C(=O)N1CCC(c2nnsc2S(C)(=O)=O)CC1,7.94%
17,COc1cc2c(cc1CCC(=O)O)CCC2,17.1%
18,CCN(CC)S(=O)(=O)c1cc2c3c(c1)c(C)cc(=O)n3CC2,3.57%
19,Cc1cccnc1C(Cc1ccsc1)NCc1cnc(N(C)C)nc1 (stereo not given),-8.31%
20,COc1ccc(C(=O)N2CCOCC2c2[nH]ncc2C)cc1F (stereo not given),-3.4%
21,CO[C@@H]1CCC[C@@H](NC(=O)CCCn2cncn2)[C@H]1O,-1.73%
22,Cc1ccc(NCc2cncc3c2CCN(C(=O)C2CC=CC2)C3)nn1,-1.58%
23,O=C(N1CCCC1)C1(Cc2ccc(-c3cccs3)cc2)CCNC1 (stereo not given),2.43%
24,O=C(NCc1cncc2c1CCN(Cc1cccc(F)c1)C2)C1CC1,-1.35%
25,Cc1ccc(CN2CCCn3cnc(COCC4CC4)c3C2)o1,-1.19%

row,Structure (SMILES),cytotoxicity at 70.5 h
1,CO[C@H]1CCN(S(=O)(=O)c2cn(C)cn2)[C@H]1Cc1ccccc1,0.174%
2,Cc1noc(C)c1CN1CC[C@@H]2O[C@H](COCC(C)C)CC[C@@H]21,-3.29%
3,O=C(c1cnccn1)N1CCN2C[C@H](Oc3cccc(F)c3)C[C@H]2C1,-2.2%
4,CCO[C@H]1CCN(S(=O)(=O)c2cn(C)cn2)[C@H]1Cc1ccccc1,-1.16%
5,CC(C)NC(=O)[C@@H]1CCO[C@@H]2CCN(c3ncccn3)C[C@@H]21,0.956%
6,Cc1nnc(N2CC[C@@H](OCC3CC3)[C@@H](Cc3ccccc3)C2)s1,-7.86%
7,CC(C)Oc1ncnc2c1CCN(Cc1ccoc1)CC2,-0.464%
8,Cc1cnc(N2C[C@@H]3CN(Cc4ccco4)CCC[C@]3(C(=O)O)C2)nc1,-5.9%
9,O=C([C@H]1CN(Cc2ccoc2)C[C@H]2OCC[C@@H]12)N1CCCCO1,-4.73%
10,O=S(=O)(Cc1ccccc1)N1CCCn2cnc(CN3CCCC3)c2C1,0.898%
11,O=C(N[C@@H]1CN(c2ncccn2)C[C@@H]2CCCO[C@@H]21)c1cnccn1,2.24%
12,Cc1noc(C)c1CN1CC[C@@H]2O[C@@H](COCC(C)C)CC[C@@H]21,3.11%
13,COc1ccc(CN2C[C@@H]3CCCO[C@@H]3[C@H](NS(C)(=O)=O)C2)cc1,-9.16%
14,Cn1cccc1C(=O)N1CCCC2(CCN(CCN3CCCC3)C2=O)C1 (stereo not given),-2.83%
15,CNC(=O)[C@H]1C[C@@H]2CN(S(=O)(=O)c3ccccc3)C[C@@H]2N1C,-8.21%
16,CS(=O)(=O)N1CC[C@H]2[C@H](C[C@@H](Cn3cncn3)N2CC2CC2)C1,-1.14%
17,O=C(NC1CC1)[C@H]1CC[C@@H]2[C@@H](CCN2c2ncc(F)cn2)O1,-11.8%
18,NC(=O)N1CCC2(CCN(Cc3cccc(F)c3)CC2)CC1,-7.24%
19,O=C(NC1CC1)[C@@H]1CCO[C@@H]2CCN(C3CCOCC3)C[C@H]21,-4.77%
20,Cn1cccc1C(=O)N1CCC2(CC1)CN(c1ccccn1)CCO2,-5.53%
21,Cn1cc(CN2CCOC3(CCCN(C(=O)c4ccco4)C3)C2)cn1 (stereo not given),-6.59%
22,O=C(NC1CC1)[C@@H]1CCO[C@@H]2CCN(C3CCOCC3)C[C@@H]21,-8.31%
23,CC(C)CN1C[C@H]2CCN(c3ncccn3)CC[C@H]2S1(=O)=O,-12.5%
24,O=C(NCC1CC1)[C@@H]1CCO[C@@H]2CCN(Cc3ccco3)C[C@H]21,15.7%
25,Cc1ccc2c(n1)N(C)CCN(C(=O)C1CC1)C2,-8.52%

row,Structure (SMILES),cytotoxicity at 70.5 h
1,CC(=O)NCC(=O)N1CC[C@H](OCC2CC2)[C@@H]1Cc1cccnc1,-8.28%
2,CS(=O)(=O)NC[C@H]1OC[C@@H]2CCN(Cc3ccc(F)cc3)C[C@@H]21,16.9%
3,O=C([C@H]1COC[C@H]2CN(C3CCCC3)C[C@H]21)N1CCCCO1,-12.7%
4,O=C([C@@H]1COC[C@H]2CN(C3CCOCC3)C[C@H]21)N1CCCCO1,18.7%
5,Cc1nc(N2CCCC2)nc2c1CCN(Cc1ccco1)CC2,-16.4%
6,O=C(c1cscn1)N1C[C@H]2CCCC(OCc3cccnc3)[C@H]2C1 (stereo not given in full),-11.5%
7,COCC(=O)N1CCC(c2nc3ccc(N4CCCC4)cn3n2)CC1,-5.18%
8,Cc1ccc(CN2CCc3ncc(CNS(C)(=O)=O)n3CC2)o1,-12.4%
9,O=C(c1ccc(F)cc1)N1CCN2C[C@H](Oc3cccnc3)C[C@H]2C1,0.416%
10,COCCN1C[C@@H](C)[C@@]2(COCCN(C(=O)c3ccncc3)C2)C1,-3.32%
11,COCCN1C[C@@H](C)[C@@]2(COCCN(C(=O)c3ccccn3)C2)C1,-4.02%
12,Cn1cnc2c1C(COCc1ccccc1)N(Cc1ccccn1)CC2 (stereo not given),-0.00457%
13,O=C(Cc1cccnc1)N1CCC2(CC1)CCN(C1CCOCC1)C2,-3.79%
14,O=C1N(c2cncnc2)CCC12CCCN(Cc1ccccn1)C2 (stereo not given),-9.94%
15,CN(C)C(=O)COCc1cncc2c1CCN(Cc1cnn(C)c1)C2,-8.65%
16,CN1CCN(Cc2cccnc2)C2(CCN(c3ncc(F)cn3)C2)C1=O (stereo not given),-6.18%
17,Cn1cc(CN2CCC3(C2)CN(Cc2ccsc2)C3)cn1,-6.34%
18,CC(=O)NCC(=O)N1CCn2cc(CN3CCN(C)CC3)nc2C1,-11.5%
19,CN1CCc2onc(CNc3ncccn3)c2C1,-25.4%
20,c1cnc(N2CCOCC3(CCCN(CC4CC4)C3)C2)cn1 (stereo not given),-5.91%
21,CC(C)Nc1nc2c(cc1C(=O)NCC1CC1)CCNCC2,-10%
22,COCCN1CCc2cc(C(=O)NCC3CC3)c(NC(C)C)nc2CC1,24.8%
23,Cc1cccc(CO[C@@H]2CC[C@H]3[C@H]2OCCN3Cc2ccsc2)n1,-12.2%
24,CN(C)[C@@H]1CCN(S(=O)(=O)c2cn(C)cn2)[C@H]1Cc1cccnc1,-2.89%
25,COc1nc2cc(C)ccc2cc1CN(C)Cc1cc(C)[nH]n1,-6.96%
